Assay results published in PMC4277729 (Bioorganic & medicinal chemistry letters, 2014).
Converted amounts (≈) assume the structure as drawn. Each block holds one compound with its values, some of them ahead of it.

What was measured:
[1] = biological target: chicken sEH (chxEH) (Gallus gallus, UniProt Q45QT1); experiment: chxEH inhibition, fluorescent substrate PHOME; format: biochemical
[2] = biological target: T1, chxEH (Gallus gallus, UniProt Q45QT1); experiment: kinetic constants of chxEH for epoxy-fatty acid substrate; format: biochemical, chicken; settings: chxEH's best substrate
[3] = biological target: T1, chxEH; experiment: FRET-based competitive displacement assay with reporter ligand ACPU
[4] = solubility by turbidity measurement at 600 nm; format: physicochemical; settings: sodium phosphate buffer, pH 7.4
[5] = substrate of recombinant purified chicken sEH

Km [1, 5]: 1.5 ± 0.3 µM
Vmax [1, 5]: 60 ± 4 nmol/min/mg
Compound: COc1ccc2cc(C(C#N)OC(=O)CC3OC3c3ccccc3)ccc2c1 (centres unmarked) [PHOME, (3-phenyl-oxiranyl)-acetic acid cyano-(6-methoxy-naphthalen-2-yl)-methyl ester]

Kd [3]: 0.283 nM
Compound: O=C(NC1CCN(C(=O)Cc2cc(=O)oc3cc(O)ccc23)CC1)NC12CC3CC(CC(C3)C1)C2 [ACPU]

The next lines start with the compound.

Compound: CCC=CCC1OC1CC=CCC=CCC=CCC=CCCC(=O)O (centres unmarked) [16,17-epoxy-docosapentaenoic acid]
Km [2]: 12 ± 3 µM
Vmax [2]: 728 ± 97 nmol/min/mg

Compound: CCC(=O)N1CCC(NC(=O)Nc2ccc(OC(F)(F)F)cc2)CC1 [TPPU]
inhibition of chxEH ([1]; inhibitor 100 nM, chxEH 1.4 nM, primary screen, endpoint mode): 15%

Compound: O=C(O)CCCCCCCCCCCNC(=O)NC12CC3CC(CC(C3)C1)C2 [AUDA]
solubility [4]: 37.5 to 50 µM (≈ 14.7 to 19.6 µg/mL)
IC50 [1]: 12 nM
